Results published in patent US8962843B2, “1,3,4-oxadiazole and 1,3,4-thiadiazole beta-lactamase inhibitors” (priority 2012, dated 2015).
Where a name gives a salt, the structure may show the parent alone.

Tests used:
[1] = system: bacterial strains that express the class D cephalosporinase OXA-15; experiment: Standard BLI potentiation MIC / synergy MIC assays, strains expressing OXA-15; format: cell-based, E. coli; settings: in combination with a β-lactam; comparator Avibactam (CCC)
Method: (§1) The experimental protocol was performed according to Clinical and Laboratory Standards Institute (CLSI) guidelines with modifications as described below (CLSI guidelines can be derived from the CLSI document M07-A9 published in January 2012: “Methods for Dilution Antimicrobial Susceptibility Tests for Bacteria That Grow Aerobically; Approved Standard-Ninth Edition”).
(§2) To prepare for MIC testing, frozen glycerol stocks of clinical isolates (Klebsiella pneumoniae, Eschericia coli, Enterobacter spp, Citrobacter spp, or Pseudomonas aeruginosa) were used to streak for isolated colonies on rich, non-selective, tryptic soy agar containing 5% sheep's blood (TSAB). Frozen glycerol stocks of laboratory engineered, isogenic E. coli strains, which contain cloned β-lactamase expressing plasmids were used to streak for isolated colonies on rich, selective LB agar supplemented with 25 μg/mL tetracycline to maintain the plasmid. All strains were incubated at 37° C. for 18-24 hrs.
(§3) On the day of testing, primary cultures were started by scraping off 5-10 colonies from the TSAB plates containing clinical strains or the tetracycline supplemented LB plates containing engineered strains. The clinical strain material was suspended in ˜5 mL of cation adjusted Mueller Hinton Broth (CAMHB) in 14 mL culture tubes. The engineered strain material was suspended in CAMHB (supplemented with 25 μg/mL tetracycline) in 14 mL culture tubes. All strains were incubated at 37° C. with aeration (200 rpm) for ˜2 hrs until the optical density at 600 nm (OD600) was >0.1.
(§4) The two compound components of the assay were each diluted in CAMHB and added to the 96-well broth microdilution assay plates. 50 μL of the β-lactam was added to each well of the assay plate in 2-fold dilutions with final concentrations ranging from 128 to 0.13 μg/mL. 25 μL of the BLI compound was added to all wells in the broth microdilution plates at a final concentration of 4 μg/mL. Inoculum cultures were prepared by standardizing the primary cultures to OD600=0.1 and then adding 20 μL of the adjusted primary culture per 1 mL CAMHB for clinical strains or CAMHB (supplemented with tetracycline at 100 μg/mL) for engineered strains, so that the final inoculum density was ˜10^5 colony forming units per milliliter. Diluted inoculum cultures were used to inoculate 25 μl, per well in 96-well broth microdilution assay plates. The final volume of each well was 100 μL and contained a β-lactam at different concentrations, a BLlcompound at 4 μg/mL concentration, the bacterial culture at an OD600 of approximately 0.001 and when necessary tetracycline at 25 μg/mL.
(§5) Plates were incubated for 18-20 hours at 37° C. with aeration (200 rpm). Following incubation, growth was confirmed visually placing plates over a viewing apparatus (stand with a mirror underneath) and then OD600 was measured using a SpectraMax 340PC384 plate reader (Molecular Devices, Sunnyvale, Calif.). Growth was defined as turbidity that could be detected with the naked eye or achieving minimum OD600 of 0.1. MIC values were defined as the lowest concentration producing no visible turbidity.
(§6) The synergy MIC (sMIC) assay determines the concentration of the BLI required to potentiate the activity of a fixed concentration of a β-lactam antibiotic against β-lactamase producing bacterial strains. The experimental protocol was performed according to Clinical and Laboratory Standards Institute (CLSI) guidelines with modifications as described below (CLSI guidelines can be derived from the CLSI document M07-A9 published in January 2012: “Methods for Dilution Antimicrobial Susceptibility Tests for Bacteria That Grow Aerobically; Approved Standard-Ninth Edition”). […]

[2] = system: bacterial strains that express KPC β-lactamases; experiment: Standard BLI potentiation MIC / synergy MIC assays, strains expressing KPC β-lactamases; format: cell-based; settings: in combination with a β-lactam; comparator Avibactam
Method: as §1, §2, §3, §4, §5, §6

Compound | activity against bacterial strains that express the class D cephalosporinase OXA-15, compared with Avibactam [1] | activity and/or spectrum of activity against bacterial strains that express KPC β-lactamases, compared with Avibactam [2]
O=C1N2C[C@@H](CC[C@H]2c2nnc(CCNCCO)o2)N1OS(=O)(=O)O [Compound 736, (2S,5R)-2-(5-(2-((2-hydroxyethyl)amino)ethyl)-1,3,4-oxadiazol-2-yl)-7-oxo-1,6-diazabicyclo[3.2.1]octan-6-yl hydrogen sulfate] | more active than Avibactam | more active than Avibactam for at least one, bacterial strain that expresses KPC β-lactamase and/or show a better spectrum of activity
N[C@H]1C[C@@H](NCc2nnc([C@@H]3CC[C@@H]4CN3C(=O)N4OS(=O)(=O)O)o2)C1 [Compound 756, (2S,5R)-2-(5-((((1s,3R)-3-aminocyclobutyl)amino)methyl)-1,3,4-oxadiazol-2-yl)-7-oxo-1,6-diazabicyclo[3.2.1]octan-6-yl hydrogen sulfate] | more active than Avibactam | more active than Avibactam for at least one, bacterial strain that expresses KPC β-lactamase and/or show a better spectrum of activity
CNCCCc1nnc([C@@H]2CC[C@@H]3CN2C(=O)N3OS(=O)(=O)O)o1 [Compound 734, (2S,5R)-2-(5-β-(methylamino)propyl)-1,3,4-oxadiazol-2-yl)-7-oxo-1,6-diazabicyclo[3.2.1]octan-6-yl hydrogen sulfate] | more active than Avibactam | more active than Avibactam for at least one, bacterial strain that expresses KPC β-lactamase and/or show a better spectrum of activity
N[C@@H]1CN[C@@H](c2nnc([C@@H]3CC[C@@H]4CN3C(=O)N4OS(=O)(=O)O)o2)C1 [Compound 763, (2S,5R)-2-(5-((2R,4S)-4-aminopyrrolidin-2-yl)-1,3,4-oxadiazol-2-yl)-7-oxo-1,6-diazabicyclo[3.2.1]octan-6-yl hydrogen sulfate] | more active than Avibactam | more active than Avibactam for at least one, bacterial strain that expresses KPC β-lactamase and/or show a better spectrum of activity
N=C(N)N[C@H]1C[C@@H](c2nnc([C@@H]3CC[C@@H]4CN3C(=O)N4OS(=O)(=O)O)s2)C1 [Compound 784, (2S,5R)-2-(5-((1s,3R)-3-guanidinocyclobutyl)-1,3,4-thiadiazol-2-yl)-7-oxo-1,6-diazabicyclo[3.2.1]octan-6-yl hydrogen sulfate] | more active than Avibactam | more active than Avibactam for at least one, bacterial strain that expresses KPC β-lactamase and/or show a better spectrum of activity
NC1CCN(Cc2nnc([C@@H]3CC[C@@H]4CN3C(=O)N4OS(=O)(=O)O)o2)CC1 [Compound 774, (2S,5R)-2-(5-((4-aminopiperidin-1-yl)methyl)-1,3,4-oxadiazol-2-yl)-7-oxo-1,6-diazabicyclo[3.2.1]octan-6-yl hydrogen sulfate] | more active than Avibactam | more active than Avibactam for at least one, bacterial strain that expresses KPC β-lactamase and/or show a better spectrum of activity
O=C1N2C[C@@H](CC[C@H]2c2nnc([C@H]3CCNC3)o2)N1OS(=O)(=O)O [Compound 758, (2S,5R)-7-oxo-2-(5-((S)-pyrrolidin-3-yl)-1,3,4-oxadiazol-2-yl)-1,6-diazabicyclo[3.2.1]octan-6-yl hydrogen sulfate] | more active than Avibactam | more active than Avibactam for at least one, bacterial strain that expresses KPC β-lactamase and/or show a better spectrum of activity
NC(=O)c1nnc([C@@H]2CC[C@@H]3CN2C(=O)N3OS(=O)(=O)O)o1 [Compound 706, (2S,5R)-2-(5-carbamoyl-1,3,4-oxadiazol-2-yl)-7-oxo-1,6-diaza-bicyclo[3.2.1]octan-6-yl hydrogen sulfate] | more active than Avibactam | more active than Avibactam for at least one, bacterial strain that expresses KPC β-lactamase and/or show a better spectrum of activity
N=C(N)NCCc1nnc([C@@H]2CC[C@@H]3CN2C(=O)N3OS(=O)(=O)O)o1 [Compound 705, (2S,5R)-2-(5-(2-guanidinoethyl)-1,3,4-oxadiazol-2-yl)-7-oxo-1,6-diazabicyclo[3.2.1]octan-6-yl hydrogen sulfate] | more active than Avibactam | more active than Avibactam for at least one, bacterial strain that expresses KPC β-lactamase and/or show a better spectrum of activity
N[C@H]1C[C@H](c2nnc([C@@H]3CC[C@@H]4CN3C(=O)N4OS(=O)(=O)O)o2)C1 [Compound 727, (2S,5R)-2-(5-((1r,3S)-3-aminocyclobutyl)-1,3,4-oxadiazol-2-yl)-7-oxo-1,6-diazabicyclo[3.2.1]octan-6-yl hydrogen sulfate] | more active than Avibactam | more active than Avibactam for at least one, bacterial strain that expresses KPC β-lactamase and/or show a better spectrum of activity
O=C1N2C[C@@H](CC[C@H]2c2nnco2)N1OS(=O)(=O)O [Compound 701, (2S,5R)-2-(1,3,4-oxadiazol-2-yl)-7-oxo-1,6-diazabicyclo[3.2.1]octan-6-yl hydrogen sulfate] | more active than Avibactam | more active than Avibactam for at least one, bacterial strain that expresses KPC β-lactamase and/or show a better spectrum of activity
NCCCCc1nnc([C@@H]2CC[C@@H]3CN2C(=O)N3OS(=O)(=O)O)o1 [Compound 735, (2S,5R)-2-(5-(4-aminobutyl)-1,3,4-oxadiazol-2-yl)-7-oxo-1,6-diazabicyclo[3.2.1]octan-6-yl hydrogen sulfate] | more active than Avibactam | more active than Avibactam for at least one, bacterial strain that expresses KPC β-lactamase and/or show a better spectrum of activity
O=C1N2C[C@@H](CC[C@H]2c2nnc(CN[C@@H]3CCNC3)o2)N1OS(=O)(=O)O [Compound 766, (2S,5R)-7-oxo-2-(5-(((R)-pyrrolidin-3-ylamino)methyl)-1,3,4-oxadiazol-2-yl)-1,6-diazabicyclo[3.2.1]octan-6-yl hydrogen sulfate] | more active than Avibactam | more active than Avibactam for at least one, bacterial strain that expresses KPC β-lactamase and/or show a better spectrum of activity
N=C(N)N1CC(c2nnc([C@@H]3CC[C@@H]4CN3C(=O)N4OS(=O)(=O)O)o2)C1 [Compound 709, (2S,5R)-2-(5-(1-carbamimidoylazetidin-3-yl)-1,3,4-oxadiazol-2-yl)-7-oxo-1,6-diazabicyclo[3.2.1]octan-6-yl hydrogen sulfate] | more active than Avibactam | more active than Avibactam for at least one, bacterial strain that expresses KPC β-lactamase and/or show a better spectrum of activity
